“Also recorded” adds a separate entry of the source. Where two headings read alike, the source gives them in different places.
Columns and labels:
[1] = system: Saccharomyces cerevisiae NOD 24; assay: Chequerboard titration test (MIC, FICI) against Saccharomyces cerevisiae NOD 24; type: cell-based; settings: for Fold reduction in MIC of drug when combined with PHMB: S cerevisiae NOD 24, FIG. 2; for MIC when combined with PHMB: S cerevisiae NOD 24, MIC of the antifungal in combination with PHMB; for FICI / Type of interaction: S cerevisiae NOD 24, antifungal combined with PHMB; for MIC: Saccharomyces cerevisiae, NOD24
Experimental: (§1) In vitro susceptibility of a clinical isolate of Candida albicans, Saccharomyces cerevisiae NOD 24 and S cerevisiae EBY 100 to the combination of the antifungal agent and PHMB was assessed using chequerboard assay. Interaction between the drugs and PHMB, formation of nanoparticles and cellular uptake was also assessed.
(§2) Yeast inoculum was prepared by picking five colonies from 24 hrs grown culture in SGA and mixing in RPMI 1640 with MOPS. The optical density of the mixture was adjusted spectrophotometrically to 1 which is equivalent to 3×10^7 Colony Forming Units of yeast/mi. This suspension was further diluted in RPMI 1640 with MOPS to give final inoculum size of 0.5×10^4 CFU/ml.
(§3) Chequer board titration test was carried out in sterile 96-well plates as per CLSI recommended standard procedure to test the antifungal effect of drugs alone and in combination with PHMB. RPMI 1640 medium buffered with MOPS was used as test medium. Dilutions of drug was prepared the test medium if the stock was made in DMSO and in case of stocks made in water further dilutions of drug was in water itself. Tested concentrations were: nystatin 0.000039 mg/ml to 0.02 mg/ml, amphotericin B 0.032 mg/ml to 0.0000625 mg/ml, berberine 0.01 mg/ml to 0.00002 mg/ml, ketoconazole 0.032 mg/ml to 0.0000625 mg/ml and terbinafine 0.16 mg/ml to 0.00031 mg/ml. Growth control and sterility control was present in all plates. All the plates were prepared in triplicates.
(§4) The plates were sealed with paraffin foil to prevent evaporation and kept at 37° C. for C albicans and 30° C. for S cererevisiae. MIC was recorded visually, aided with Powerwave 340 universal microplate spectrophotometer (Biotek) after 24 hours for C albicans and S cerevisiae NOD 24. […] MIC was defined as the lowest concentration at which there is no visible growth. FICI was used to analyse the drug interactions in vitro and was calculated using the equation given below: […]

[2] = system: Saccharomyces cerevisiae EBY 100; assay: Chequerboard titration test (MIC, FICI) against Saccharomyces cerevisiae EBY 100; type: cell-based; settings: for Fold reduction in MIC of drug when combined with PHMB: S cerevisiae EBY100, FIG. 1; for MIC when combined with PHMB: S cerevisiae EBY 100, MIC of the antifungal in combination with PHMB; for FICI / Type of interaction: S cerevisiae EBY 100, antifungal combined with PHMB; for MIC: Saccharomyces cerevisiae
Experimental: as §1, §2, §3, §4

[3] = system: Candida albicans; assay: Chequerboard titration test (MIC, FICI) against clinical isolate of Candida albicans; type: cell-based; settings: for Fold reduction in MIC of drug when combined with PHMB: FIG. 3; for MIC when combined with PHMB: MIC of the antifungal in combination with PHMB; for FICI / Type of interaction: antifungal combined with PHMB
Experimental: as §1, §2, §3, §4

[4] = system: Candida albicans, Saccharomyces cerevisiae NOD 24 and S cerevisiae EBY 100; settings: chequerboard assay, organism not specified
Experimental: as §1, §3, §4
Wilcoxon signed rank test was used to statistically analyse changes in MICs of antifungals when combined with PHMB. P value less than 0.05 was considered significant. Statistical analysis was done using SPPSS version 2.0 software.

[5] = Particle size by dynamic light scattering (DLS); type: physicochemical; settings: for Average size of particles (DLS): combined with PHMB in the ratio 1:3, PBS
Experimental: Dynamic light scattering (DLS) was used to estimate size of complexes formed. It is based on the principle that by measuring scattered light from particles in motion their size can be determined. […] Particle size was determined using Zetasizer S (Malvern instruments, UK).

[6] = S cerevisiae NOD 24, PHMB concentration when combined with the labelled drug
[7] = S cerevisiae NOD 24, RPMI 1640 with MOPS, 30° C., 24 hours
[8] = S cerevisiae EBY 100, PHMB concentration when combined with the labelled drug
[9] = S cerevisiae EBY 100, RPMI 1640 with MOPS, 30° C., 48 hours
[10] = PHMB concentration when combined with the labelled drug
[11] = RPMI 1640 with MOPS, 37° C., 24 hours
[12] = combined with PHMB in the ratio 1:3
[13] = S cerevisiae NOD 24, PHMB concentration when combined with the labelled drug, read-out: MIC of PHMB with antifungals
[14] = S cerevisiae NOD 24, RPMI 1640 with MOPS, 30° C., 24 hours, read-out: MIC of antifungals alone
[15] = EBY100, S cerevisiae EBY 100, RPMI 1640 with MOPS, 30° C., 48 hours, read-out: MIC of antifungals alone
[16] = PHMB concentration when combined with the labelled drug, read-out: MIC of PHMB with antifungals
[17] = RPMI 1640 with MOPS, 37° C., 24 hours, read-out: MIC of antifungals alone

C[C@@H]1[C@H](O)[C@@H](C)/C=C/C=C/C=C/C=C/C=C/C=C/C=C/[C@H](O[C@@H]2O[C@H](C)[C@@H](O)[C@H](N)[C@@H]2O)C[C@@H]2O[C@](O)(C[C@@H](O)C[C@@H](O)[C@H](O)CC[C@@H](O)C[C@@H](O)CC(=O)O[C@H]1C)C[C@H](O)[C@H]2C(=O)O [Amphotericin B]
Fold reduction in MIC of drug when combined with PHMB [1]: 16 fold
MIC when combined with PHMB ([1]; 30° C., 24 hours): 250 ng/mL
MIC of PHMB with antifungals [1, 6]: 500 ng/mL
MIC of antifungals alone [1, 7]: 4 µg/mL
FICI [1]: 0.56
Type of interaction [1]: No interaction (>0.5 but ≤4 is ‘no interaction’)
Fold reduction in MIC of drug when combined with PHMB [2]: 4 fold
MIC when combined with PHMB ([2]; 30° C., 48 hours): 4 µg/mL
MIC of PHMB with antifungals [2, 8]: 500 ng/mL
MIC of antifungals alone [2, 9]: 0.016 mg/mL
FICI [2]: 0.5
Type of interaction [2]: Synergistic (FICI≤0.5 is ‘synergistic effect’)
Type of interaction ([2]; listed as amphotericin B): synergy
Fold reduction in MIC of drug when combined with PHMB [3]: 2 fold
MIC when combined with PHMB ([3]; 37° C., 24 hours): 0.5 µg/mL
MIC of PHMB with antifungals [3, 10]: 31 ng/mL
MIC of antifungals alone [3, 11]: 1 µg/mL
FICI [3]: 0.53
Type of interaction [3]: No interaction (>0.5 but ≤4 is ‘no interaction’)
Interaction with PHMB (synergy), in words [4]: Synergistic effect
Nanoparticles with PHMB observed or not (DLS) [5, 12]: Nanoparticles were not detected

COc1ccc2cc3[n+](cc2c1OC)CCc1cc2c(cc1-3)OCO2 [Berberine]
Fold reduction in MIC of drug when combined with PHMB [1]: 16 fold
MIC when combined with PHMB ([1]; 30° C., 24 hours): 560 ng/mL
FICI [1]: 0.56
Type of interaction [1]: No interaction (>0.5 but ≤4 is ‘no interaction’)
MIC [1, 13]: 0.5 µg/mL
MIC [1, 14]: 50 µg/mL
Fold reduction in MIC of drug when combined with PHMB [2]: 2 fold
MIC when combined with PHMB ([2]; 30° C., 48 hours): 25 µg/mL
FICI [2]: 0.75
Type of interaction [2]: No interaction (>0.5 but ≤4 is ‘no interaction’)
MIC ([2]; EBY100, S cerevisiae EBY 100, PHMB concentration when combined with the labelled drug, read-out: MIC of PHMB with antifungals): 0.5 µg/mL
MIC [2, 15]: 50 µg/mL
Fold reduction in MIC of drug when combined with PHMB [3]: 2 fold
MIC when combined with PHMB ([3]; 37° C., 24 hours): 31.25 µg/mL
MIC [3, 16]: 0.031 µg/mL
FICI [3]: 0.53
Type of interaction [3]: No interaction (>0.5 but ≤4 is ‘no interaction’)
Share of particles around 22.2±1.5 nm ([5]; combined with PHMB 1:3): 64.5%
Nanoparticles with PHMB observed or not (DLS) [5, 12]: Nanoparticles were observed
Average size of particles (DLS) [5]: 22.22±1.591 nm
Average size of particles (DLS) ([5]; listed as berberine): around 22.2±1.5 nm

CC(=O)N1CCN(c2ccc(OCC3COC(Cn4ccnc4)(c4ccc(Cl)cc4Cl)O3)cc2)CC1 (stereo not shown) [Ketoconazole]
Fold reduction in MIC of drug when combined with PHMB [1]: 4 fold
MIC when combined with PHMB ([1]; 30° C., 24 hours): 1000 ng/mL
FICI [1]: 0.5
Type of interaction [1]: Synergistic (FICI≤0.5 is ‘synergistic effect’)
MIC [1, 13]: 0.5 µg/mL
MIC [1, 14]: 16 µg/mL
Fold reduction in MIC of drug when combined with PHMB [2]: 4 fold
MIC when combined with PHMB ([2]; 30° C., 48 hours): 0.31 µg/mL
FICI [2]: 0.263
Type of interaction [2]: Synergistic (FICI≤0.5 is ‘synergistic effect’)
MIC ([2]; EBY100, 48 h, read-out: MIC of antifungals alone): 1.25 µg/mL
Fold reduction in MIC of drug when combined with PHMB [3]: 4 fold
MIC when combined with PHMB ([3]; 37° C., 24 hours): 1 µg/mL
MIC [3, 16]: 0.062 µg/mL
MIC [3, 17]: 4 µg/mL
FICI [3]: 0.281
Type of interaction [3]: Synergistic (FICI≤0.5 is ‘synergistic effect’)
Interaction with PHMB (synergy), in words [4]: Strong synergism; also recorded: Synergistic effect
Polydispersity index ([5]; combined with PHMB 1:3): > 1
Share of particles of size less than 10 nm ([5]; combined with PHMB 1:3): less than 10%
Nanoparticles with PHMB observed or not (DLS) [5, 12]: Nanoparticles were observed
Peak 1 Average size (DLS) [5, 12]: 1.15±0.017
Peak 2 Average size (DLS) [5, 12]: 5.88±0.71
Peak 3 Average size (DLS) [5, 12]: 498.9±65.2

C[C@@H]1[C@H](O)[C@@H](C)/C=C/C=C/CC/C=C/C=C/C=C/C=C/C(O[C@H]2O[C@H](C)[C@@H](O)[C@H](N)[C@@H]2O)CC2O[C@](O)(CC(O)C(O)CCC(O)CC(O)CC(O)CC(=O)O[C@H]1C)CC(O)C2C(=O)O (stereo partly shown) [Nystatin]
Fold reduction in MIC of drug when combined with PHMB [1]: 4 fold
MIC when combined with PHMB ([1]; 30° C., 24 hours): 625 ng/mL
MIC of PHMB with antifungals [1, 6]: 500 ng/mL
MIC of antifungals alone [1, 7]: 2.5 µg/mL
FICI [1]: 0.75
Type of interaction [1]: No interaction (>0.5 but ≤4 is ‘no interaction’)
Fold reduction in MIC of drug when combined with PHMB [2]: 2 fold
MIC when combined with PHMB ([2]; 30° C., 48 hours): 2.5 µg/mL
MIC of PHMB with antifungals [2, 8]: 62 ng/mL
MIC of antifungals alone [2, 9]: 0.005 mg/mL
FICI [2]: 0.53
Type of interaction [2]: No interaction (>0.5 but ≤4 is ‘no interaction’)
Fold reduction in MIC of drug when combined with PHMB [3]: 2 fold
MIC when combined with PHMB ([3]; 37° C., 24 hours): 2.5 µg/mL
MIC of PHMB with antifungals [3, 10]: 500 ng/mL
MIC of antifungals alone [3, 11]: 5 µg/mL
FICI [3]: 1
Type of interaction [3]: No interaction (>0.5 but ≤4 is ‘no interaction’)
Nanoparticles with PHMB observed or not (DLS) [5, 12]: Nanoparticles were not detected

CN(C/C=C/C#CC(C)(C)C)Cc1cccc2ccccc12 [Terbinafine]
Fold reduction in MIC of drug when combined with PHMB [1]: 16 fold
MIC when combined with PHMB ([1]; 30° C., 24 hours): 2500 ng/mL
FICI [1]: 0.312
Type of interaction [1]: Synergistic (FICI≤0.5 is ‘synergistic effect’)
MIC [1, 13]: 0.062 µg/mL
MIC [1, 14]: 4 µg/mL
Fold reduction in MIC of drug when combined with PHMB [2]: 8 fold
MIC when combined with PHMB ([2]; 30° C., 48 hours): 2.5 µg/mL
FICI [2]: 0.14
Type of interaction [2]: Synergistic (FICI≤0.5 is ‘synergistic effect’)
MIC [2, 15]: 20 µg/mL
Fold reduction in MIC of drug when combined with PHMB [3]: 4 fold
MIC when combined with PHMB ([3]; 37° C., 24 hours): 1 µg/mL
MIC [3, 16]: 0.5 µg/mL
MIC [3, 17]: 4 µg/mL
FICI [3]: 0.5
Type of interaction [3]: Synergistic (FICI≤0.5 is ‘synergistic effect’)
Interaction with PHMB (synergy), in words [4]: Strong synergism; also recorded: Synergistic effect
